From patent US20260365696A1, “INHIBITORS OF PTP1B / NCK1 INTERACTION AND METHODS OF MAKING AND USING SAME” (Radella Pharmaceuticals LLC, priority 2023, published 2026)
“Also recorded” adds a separate entry of the source.

Legend:
[1] = molecular target: T1, interaction between PTP1B and the SH3-2 domain of NCK1 (Homo sapiens, UniProt P16333); test: GST pull-down / co-immunoprecipitation screen for disruption of the PTP1B / NCK1 SH3-2 interaction; type: binding; details: peptide 1 mM; for disruption of the interaction between PTP1B and the SH3-2 domain of NCK1: GST-SH3-2 and FLAG-PTP1B
T1 construct: FLAG-PTP1B from HEK293 lysate
Description: FIG. 4A depicts an immunoblot showing that certain peptides prevent co-immunoprecipitation of FLAG-PTP1B and GST-tagged SH3-2 domain of NCK1 (“SH3”). GST was fused to full-length NCK1 (“Nck1”), all SH3 domains of NCK1 (“SH3”), the NCK1 SH2 domain (“SH2”), the NCK1 SH3-1 domain (“SH3 1”), the NCK1 SH3-2 domain (“SH3 2”), and the NCK1 SH3-3 domain (“SH3 3”). GST alone was used as a negative control (“GST”). FLAG-PTP1B was incubated with the indicated bead-bound GST-fusion protein, and FLAG-PTP1B was detected in the IP eluate by western blotting. The outlined region in column “SH3-2” identifies the PTP1B band. For GST-SH3-2 and FLAG-PTP1B, the mixture was further incubated with one of peptides A through K, (1 mM). FIG. 4B depicts an input control for the immunoblot. FIG. 4C depicts a Ponceau stain for the immunoblot, which was used to measure total protein.
Construction and Purification of GST constructs: Human NCK1 (NM_006153) human cDNA was obtained (Origene, MD, USA). GST fusion constructs (GST-only control, GST full length NCK1, GST all SH3 domains of NCK1, GST SH2 domain of NCK1, GST SH3-1, GST SH3-2 and GST SH3-3) were amplified, double digested (EcoRI and XhoI, New England Biolabs), ligated in to pGEX-6P-2 vector (#M2200S, New England Biolabs; #GE28-9546-50, Merck), transformed in to DH5α E. coli cells (#C2987H, NEB) and purified using a plasmid preparation kit according to manufacturer's instructions (#T1010, New England Biolabs). GST-constructs were transformed in to BL21-Gold E. coli cells (#230134, Agilent), and GST-fusion proteins were produced, extracted, and bound to GST beads as described in Example 1. Beads were washed three times with STE buffer and stored at 4 °C.
GST pull-down experiments for compounds screening against FLAG PTP1B interaction with SH3-2 domain of NCK1. GST-bound agarose beads of SH3-2 domain were incubated overnight at 4 °C with lysates from HEK293 cells overexpressing FLAG PTP1B protein, to gether with various peptide compounds (1 mM) to screen for inhibition of PTP1B-NCK1 binding. Following overnight incubation, agarose beads were three times washed in STE buffer, and proteins were eluted in SDS-Laemmli buffer by heating at 95 °C for 10 min. Samples were spun at 12,000 rpm for 2 min, and the liquid fraction was transferred in to 1 mL Eppendorf tubes. Proteins were separated and detected by chemiluminescent Western Blotting (PEQLAB, Germany) using anti-FLAG HRP antibody (#A8592, Sigma).

[2] = In vivo biodistribution / pharmacokinetics in C57/BL6 mice; design: species or system mouse; details: 30 mg/kg IP
Description: FIG. 6 is a graph showing MD20 concentrations in the indicated tissues in a mouse following intraperitoneal (IP) administration of the peptide at a dose of 30 mg/kg. Tissue samples were collected at 0, 0.25, 0.5, 1, 2, 4, 8, and 24 hours post-injection.
Biodistribution: In vivo pharmacokinetic assessments of biodistribution of MD20 were performed in C57/BL6 male mice. All animals were maintained under a 12 h light/dark cycle with free access to food and water, where temperature and humidity was controlled according to UK Home Office regulations. MD20 compound was dissolved in PBS and administered to animals via intraperitoneal (IP) injection at a dose of 30 mg/kg. Mice were sacrificed at eight different time points (0.25, 0.5, 1, 3, 4, 6, 8 and 24 h house post-dosing; n=3 animals per time point, 24 animals in total). Terminal blood (in EDTA-containing tubes for plasma), perfused liver, muscle, adipose, kidney and brain samples were collected and kept on dry ice. Blood samples were centrifuged (4 °C, 21,100 g for 5 min) and the resulting plasma was transferred in to corresponding tubes. All samples were analyzed using LC-MS and appropriate methods.

[3] = system: GLUT4; test: GLUT4 gene expression in adipose tissue of LDLR−/− mice (qPCR); type: in vivo, mouse; details: 30 mg/kg IP daily, vs control
Description: (§1) FIGS. 30A-30E are graphs showing expression of various genes in tissues of HFD-fed LDLR−/− mice following 6 weeks of daily IP administration of MD20 (30 mg/kg) or a vehicle control. Mice were fasted for 5 hours at the conclusion of the experiment, liver and white adipose tissue (“WAT”) samples were collected, and gene expression was measured by qRT-PCR. Expression of glucose transporter 4 (GLUT4; FIG. 30A) and stearoyl-CoA-desaturase 1 (SCD1; FIG. 30B) was measured in adipose tissue, and expression of Glucose-6-phosphatase (G6P; FIG. 30C), Activating Transcription Factor 4 (ATF4; FIG. 30D), and 3-hydroxy-3-methylglutaryl (HMGCS; FIG. 30E) was measured in liver tissue. Data represent mean±SEM; statistical differences were determined using two tailed student's t-test.
(§2) Gene expression analyses: Livers and adipose tissue were collected from 5 h-fasted animals and snap-frozen in liquid nitrogen. RNA was isolated from frozen liver tissue using TRIzole (Sigma, UK) and cDNA was synthesized from 1 μg RNA using bioscript cDNA synthesis kit (Bioline, UK), oligo (dT) 18 (SEQ ID NO: 170), and random hexamer primers.
(§3) Genes of interest were amplified by quantitative PCR (qPCR) using gene-specific primers and GoTaq qPCR master mix (Promega, Madison, WI, USA).

[4] = system: G6Pase; test: G6Pase gene expression in liver of LDLR−/− mice (qPCR); type: in vivo, mouse; details: 30 mg/kg IP daily, vs control
Description: as §1, §2, §3

[5] = system: HMGCS; test: HMGCS gene expression in liver of LDLR−/− mice (qPCR); type: in vivo, mouse; details: 30 mg/kg IP daily, vs control
Description: as §1, §2, §3

| Substance | binding to full-length NCK1 (concluded from pull-down) [1] | disruption of the interaction between PTP1B and the SH3-2 domain of NCK1 [1] | detection in most tissues and plasma, time post-administration [2] | stability and bioavailability in vivo [2] | detection in liver ([2]; any time point) | GLUT4 gene expression in adipose tissue [3] | G6Pase gene expression in liver [4] | HMGCS expression [5] |
| --- | --- | --- | --- | --- | --- | --- | --- | --- |
| Ac-PRPPKR-NH2 [MD20, Ac-PRPPKR-NH2] | bind to full-length NCK1, specifically, at SH3-2 domain | disrupt the interaction between PTP1B and the SH3-2 domain of NCK1 | up to 5 h | good stability and bioavailability in vivo | No MD20 was detected in the liver; also recorded: not detected in liver tissue at any time point | increased | decreased | upregulated |
| Ac-PPPEHIPPPPRPPKR-NH2 [MD17] | bind to full-length NCK1, specifically, at SH3-2 domain | disrupt the interaction between PTP1B and the SH3-2 domain of NCK1 |  |  |  |  |  |  |
